We go through nine compounds from PMC4438668, “Quantitative High-Throughput Identification of Drugs as Modulators of Human Constitutive Androstane Receptor” (Scientific Reports, 2015).

One data set relates to HepG2-CYP2B6-hCAR cells. As to the kind of experiment: Cell viability assay (CellTiter-Glo ATP quantitation). In kind it is cell-based, human. Details: key to Cytotoxicity (activity call): Inactive: considered inactive if efficacy is less than 30%. The conditions noted are these: 24 h. On the procedure: The potential cytotoxicity of the NPC compounds in HepG2-CYP2B6-hCAR cells was measured using a luciferase-coupled ATP quantitation assay (CellTiter-Glo viability assay, Promega). The change of intracellular ATP content indicates the number of metabolically competent cells. The cells were seeded at 2,500 cells/5 μl in 1536-well plates and were exposed to each test compound at concentrations and treatment duration as previously mentioned. The assay plates were incubated for 24 h at 37 °C, followed by the addition of 4 μl/well of CellTiter-Glo reagent. After 30 min incubation at RT, the luminescence intensity of the plates was measured using a ViewLux plate reader.
Background: ATP-based viability assays read luminescence as a measure of living cells.

A further data set deals with CYP3A4. As to the kind of experiment: CYP3A4 mRNA expression in HPH (real-time PCR). The following applies: HPH, 24 h, vs vehicle control (0.1% DMSO). In kind it is cell-based, human.
The target in the next data set is T1, hPXR (Homo sapiens, UniProt O75469).
T1 construct: expressed in transfected cells; host or cells: HepG2 (transient transfection)
T1 sequence (O75469 1-434): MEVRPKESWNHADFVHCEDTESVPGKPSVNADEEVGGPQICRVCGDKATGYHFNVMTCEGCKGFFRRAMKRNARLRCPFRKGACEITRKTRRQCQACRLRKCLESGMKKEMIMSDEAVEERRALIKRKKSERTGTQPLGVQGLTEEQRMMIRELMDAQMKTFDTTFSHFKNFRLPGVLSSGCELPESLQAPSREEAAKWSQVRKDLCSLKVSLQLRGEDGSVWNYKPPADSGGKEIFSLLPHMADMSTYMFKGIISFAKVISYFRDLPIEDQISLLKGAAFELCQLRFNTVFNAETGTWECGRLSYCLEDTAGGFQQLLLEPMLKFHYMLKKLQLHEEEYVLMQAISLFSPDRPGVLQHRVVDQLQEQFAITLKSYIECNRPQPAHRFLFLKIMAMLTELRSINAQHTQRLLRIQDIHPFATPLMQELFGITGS
As to the kind of experiment: Transient hPXR luciferase assay in HepG2 cells (CYP2B6-2.2 kb reporter). In kind it is cell-based. The conditions noted are these: HepG2, 24 h, in the presence or absence of rifampicin (10 μM). On the procedure:
HepG2 cells cultured in a 24-well plate were co-transfected with the CYP2B6-2.2 kb reporter and hPXR expression vectors using a Lipofectamine® 2000 Transfection Kit (Life Technologies) following the manufacturer’s instruction. […] Cell lysates were assayed for firefly luciferase activities normalized against the activities of co-transfected Renilla luciferase using a Dual-Luciferase Kit (Promega). Data were represented as mean±SD of three individual transfections.

A further data set concerns CAR, CYP2B6, or CYP3A4. The following applies: previously known; reference not given; cited from earlier work.
For data set [1], the target named is T2, human CAR (hCAR) (Homo sapiens, UniProt Q14994).
T2 sequence (Q14994 1-348 isoform Q14994-2): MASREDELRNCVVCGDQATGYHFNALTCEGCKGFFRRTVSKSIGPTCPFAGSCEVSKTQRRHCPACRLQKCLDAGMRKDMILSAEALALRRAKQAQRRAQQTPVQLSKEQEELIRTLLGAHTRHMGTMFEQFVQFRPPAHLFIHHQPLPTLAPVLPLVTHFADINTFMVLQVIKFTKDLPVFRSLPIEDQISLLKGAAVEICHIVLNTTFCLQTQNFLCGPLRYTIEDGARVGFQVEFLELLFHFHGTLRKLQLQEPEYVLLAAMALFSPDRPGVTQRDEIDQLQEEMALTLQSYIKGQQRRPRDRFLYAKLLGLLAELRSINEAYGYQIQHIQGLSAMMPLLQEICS
As to the kind of experiment: hCAR luciferase reporter qHTS, antagonist mode (HepG2-CYP2B6-hCAR cells, CITCO co-treatment).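 As to all read-outs here: stable HepG2 line carrying hCAR plus a CYP2B6 promoter (PBREM/XREM) luciferase reporter, 1536-well format, 24 h compound exposure at 37 °C, then luminescence read with ONE-Glo.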 The conditions noted are these: for IC50 / Follow-up Confirmation Efficacy / Primary Screen Efficacy: antagonist mode; for Follow-up Confirmation Efficacy / Primary Screen Efficacy: relative to PK11195 (100%). (In general: Reporter assays use an easily measured gene product as a stand-in for the process of interest.)
Description: The pEF6/V5-hCAR expression plasmid and the pGL4.17[luc2/Neo]-CYP2B6-2.2kb construct containing both the PBREM and XREM[40], were co-transfected in HepG2 cells using lipofectamine 2000 reagents (Life Technologies) following the manufacturer’s instruction. Dulbecco’s Modified Eagle Medium (DMEM) containing 10% FBS, 100 U/ml penicillin, 100 μg/ml streptomycin, G418 (0.6-1 mg/ml) and blasticidin (10 μg/ml) were used for the selection of colonies containing a mixed population of drug resistant cells. Subsequently, these cells were transferred to collagen-coated 48-well plates and continually cultured in the same media. Single colony containing both plasmids was selected and functionally verified.
The generated stable cell line, namely HepG2-CYP2B6-hCAR, was used to identify hCAR modulators in a qHTS platform. Assays were run in both agonist and antagonist modes. In brief, HepG2-CYP2B6-hCAR cells were dispensed at 2,500 cells/well in 1,536-well plates (Greiner Bio-One North America, Monroe, NC) using a Multidrop Combi (Thermo Fisher Scientific Inc., Waltham, MA). […] The assays were incubated at 37 °C for 24 h followed by the addition of 4 μl of the ONE-Glo luciferase reagent (Promega, Madision, WI). The assay plates were incubated at room temperature for 20 min and luminescence intensity was quantified using a ViewLux plate reader (PerkinElmer, Shelton, CT).
(§1) Concentration-response titration points for each compound were then fitted to the Hill equation, yielding half-maximal inhibition (IC50) or activation (EC50) and maximal response (efficacy) values. Compounds from the primary qHTS screen were classified into four major curve classes according to quality of curve fit, potency and efficacy. Class 1.1, 1.2, 2.1, and 2.2 curves were high-quality and thus high-confidence concentration-response curves (CRCs). […] All other curve classes (including those curves with single point activity) were deemed inconclusive. […] Follow-up studies were performed using a new aliquot of samples to confirm sample integrity and assay reproducibility.
All of these compounds were retested in both HepG2-CYP2B6-hCAR and cell viability assays.

A further data set has as its system CYP2B6. As to the kind of experiment: CYP2B6 mRNA expression in HPH (real-time PCR). The conditions noted are these: HPH, 24 h, vs vehicle control (0.1% DMSO).
Data set [2] concerns the target T2, human CAR (hCAR). As to the kind of experiment: hCAR luciferase reporter qHTS, agonist mode (HepG2-CYP2B6-hCAR cells, PK11195 co-treatment). The conditions noted are these: for EC50 / Follow-up Confirmation Efficacy / Primary Screen Efficacy: agonist mode; for Follow-up Confirmation Efficacy: relative to CITCO (100%); for Primary Screen Efficacy: relative to CITCO Emax (100%).
Description: The generated stable cell line, namely HepG2-CYP2B6-hCAR, was used to identify hCAR modulators in a qHTS platform. Assays were run in both agonist and antagonist modes. In brief, HepG2-CYP2B6-hCAR cells were dispensed at 2,500 cells/well in 1,536-well plates (Greiner Bio-One North America, Monroe, NC) using a Multidrop Combi (Thermo Fisher Scientific Inc., Waltham, MA). […] Each NPC compound was tested at 8 concentrations ranging from 0.6 nM to 38.3 μM. The assays were incubated at 37 °C for 24 h followed by the addition of 4 μl of the ONE-Glo luciferase reagent (Promega, Madision, WI). The assay plates were incubated at room temperature for 20 min and luminescence intensity was quantified using a ViewLux plate reader (PerkinElmer, Shelton, CT).
as §1
These compounds were prepared in 1536-well compound plates at 11-point 3-fold dilution titrations in DMSO, with final concentrations ranging from 0.6 nM to 38.3 μM. All of these compounds were retested in both HepG2-CYP2B6-hCAR and cell viability assays.

Another data set deals with T3, EYFP-hCAR (Homo sapiens, UniProt Q14994).
T3 construct: expressed in transfected cells; host or cells: human primary hepatocytes infected with Ad/EYFP-hCAR
T3 sequence (Q14994 1-348 isoform Q14994-2): T2 sequence (Q14994 1-348 isoform Q14994-2)
As to the kind of experiment: Nuclear translocation of Ad/EYFP-hCAR in human primary hepatocytes. The conditions noted are these: HPH, 1 mM. In kind it is cell-based. On the procedure: A recombinant adenovirus expressing enhanced yellow fluorescent protein-tagged hCAR (Ad/EYFP-hCAR) was generated as described previously. Hepatocytes cultured in 96-well collagen-coated plates in serum free Williams’ E medium were infected with Ad/EFYP-hCAR (1 μl/well) for 12 h before treatment with the vehicle control, DMSO (0.1%), PB (1 mM), and selected compounds for another 8 h. Subcellular localization of hCAR was visualized using a Nikon (Tokyo, Japan) C1-LU3 instrument based on an inverted Nikon Eclipse TE2000 microscope.

[3] abbreviates: Follow-up Confirmation Potency (IC50), follow-up cherry-pick, 11-point titration.
Setting [4] is: Primary Screen Potency (IC50), primary qHTS, 0.1 μM CITCO, 24 h.
The mark [5] stands for this setting: Follow-up Confirmation Potency (EC50), follow-up cherry-pick, 11-point titration.
The mark [6] stands for this setting: Primary Screen Potency (EC50), primary qHTS, 2.5 μM PK11195, 24 h.

Entries after “also recorded” stand apart in the source; their conditions may differ.

By IC50 is commonly meant the concentration needed to halve the response being measured. In general, EC50 refers to the midpoint of the concentration-response curve.

Turning to `Nc1ncnc2c1ncn2CCOCP(=O)(O)O` [Adefovir], the “Cytotoxicity (activity call)” value with HepG2-CYP2B6-hCAR cells is “Inactive”. Besides, the “Effect on CYP3A4 mRNA expression” value in the data set with CYP3A4 was “negligible effect”. Further, on hPXR, the “Effect on basal and RIF-induced PXR activity” value is “no effects on either basal or RIF-induced hPXR activation”. Further, the “Known modulator of CAR, CYP2B6, or CYP3A4?” value (shortened to “Known modulator of CAR”) with CAR, CYP2B6, or CYP3A4 was “CYP3A4 inhibitor”. For the same compound, the IC50 on human CAR (hCAR) [1] (setting [3]) was found to be 0.77 µM; on human CAR (hCAR) [1] (setting [4]) it was 0.76 µM. Also, the “Follow-up Confirmation Efficacy” value on human CAR (hCAR) [1] (follow-up cherry-pick) is reported as -87%. For the same compound, on human CAR (hCAR) [1] (primary qHTS), the “Primary Screen Efficacy” value is given as -102%.
For the compound `CCO[C@H]1O[C@@H]2O[C@@]3(C)CC[C@H]4[C@H](C)CC[C@@H]([C@H]1C)[C@@]24OO3` [Artemotil], the “Effect on CYP3A4 mRNA expression” value in the data set on CYP3A4 was “markedly enhanced”. Also, the “Known modulator of CAR” value in the data set with CAR, CYP2B6, or CYP3A4 was “Activates CAR and Induces CYP2B6”. The “Effect on CYP2B6 mRNA expression” value in the data set on CYP2B6 was “significantly induced”. The values for the EC50 on human CAR (hCAR) [2] (setting [5]) and on human CAR (hCAR) [2] (setting [6]) were 5 µM and 2.1 µM, respectively. The “Follow-up Confirmation Efficacy” value at human CAR (hCAR) [2] (follow-up cherry-pick) was determined as 71%. Besides, at human CAR (hCAR) [2] (primary qHTS), the “Primary Screen Efficacy” value is given as 33%.
Turning to `COc1cc(Nc2c(C#N)cnc3cc(OCCCN4CCN(C)CC4)c(OC)cc23)c(Cl)cc1Cl` [Bosutinib], the “Cytotoxicity (activity call)” value in the data set with HepG2-CYP2B6-hCAR cells is recorded as “Inactive”.
For `Clc1ccc(-c2nc3sccn3c2C=NOCc2ccc(Cl)c(Cl)c2)cc1` [CITCO, 6-(4-chlorophenyl) imidazo[2,1-b][1,3]-thiazole-5-carbaldehyde-O-(3,4-dichlorobenzyl)oxime], the “Effect on hCAR activity (agonist mode optimization, Fig. 1A)” value on human CAR (hCAR) [2] (PK11195 at 2.5 μM and 5.0 μM, CITCO co-treated with PK11195) was “restored the hCAR activity in a concentration-dependent manner”. For the same compound, at human CAR (hCAR) [1] (PK11195 at varying concentrations, CITCO co-treatment at 75 nM, 100 nM, or 200 nM), the “Effect on hCAR activity (antagonist mode optimization, Fig. 4A)” value is “moderate but concentration-dependent increase of the basal activity of hCAR”.
`COc1cc(N)c(Cl)cc1C(=O)NC1CCN(Cc2ccccc2)CC1` [Clebopride]: the “Effect on CYP3A4 mRNA expression” value with CYP3A4 is “markedly enhanced”. In addition, the “Effect on CYP2B6 mRNA expression” value in the data set on CYP2B6 is on record as “significantly induced; also recorded: potent induction exceeding that of CITCO”. Also, the EC50 worked out at 9.4 µM on human CAR (hCAR) [2] (setting [5]) and 7.6 µM on human CAR (hCAR) [2] (setting [6]). Besides, at human CAR (hCAR) [2] (follow-up cherry-pick), the “Follow-up Confirmation Efficacy” value was determined as 80%. At human CAR (hCAR) [2] (primary qHTS), the “Primary Screen Efficacy” value is given as 52%.
`C[C@H]1O[C@@H](O[C@H]2[C@@H](O)C[C@H](O[C@H]3[C@@H](O)C[C@H](O[C@H]4CC[C@@]5(C)[C@H](CC[C@@H]6[C@@H]5CC[C@]5(C)[C@@H](C7=CC(=O)OC7)CC[C@]65O)C4)O[C@@H]3C)O[C@@H]2C)C[C@H](O)[C@@H]1O` [Digitoxin]: the “Cytotoxicity (activity call)” value with HepG2-CYP2B6-hCAR cells is “Inactive”. Moreover, the IC50 at human CAR (hCAR) [1] (setting [3]) was 0.29 µM; on human CAR (hCAR) [1] (setting [4]), 0.08 µM. In addition, the “Follow-up Confirmation Efficacy” value at human CAR (hCAR) [1] (follow-up cherry-pick) was -98%. Further, the “Primary Screen Efficacy” value on human CAR (hCAR) [1] (primary qHTS) is given as -76%.
For `CO[C@@]12[C@H](COC(N)=O)C3=C(C(=O)C(C)=C(N)C3=O)N1C[C@@H]1N[C@@H]12` [Mitomycin C], in the data set on HepG2-CYP2B6-hCAR cells, the “Cytotoxicity (activity call)” value is listed as “Inactive”. For the same compound, in the data set on CAR, CYP2B6, or CYP3A4, the “Known modulator of CAR” value is recorded as “PXR deactivator”. The IC50 amounted to 0.75 µM at human CAR (hCAR) [1] (setting [3]) and 0.43 µM on human CAR (hCAR) [1] (setting [4]). The “Follow-up Confirmation Efficacy” value on human CAR (hCAR) [1] (follow-up cherry-pick) is recorded as -110%. Moreover, the “Primary Screen Efficacy” value at human CAR (hCAR) [1] (primary qHTS) is -91%. The “Identified as hCAR antagonist/deactivator in the qHTS” value on human CAR (hCAR) [1] (primary qHTS of 2816 NPC compounds) was “antagonist of hCAR”.
As to `Cc1c(O)cccc1C(=O)N[C@@H](CSc1ccccc1)[C@H](O)CN1C[C@H]2CCCC[C@H]2C[C@H]1C(=O)NC(C)(C)C` [Nelfinavir], in the data set on HepG2-CYP2B6-hCAR cells, the “Cytotoxicity (activity call)” value is “Inactive”. In addition, the “Effect on CYP3A4 mRNA expression” value in the data set on CYP3A4 was “negligible effect”. For the same compound, at hPXR, the “Effect on basal and RIF-induced PXR activity” value is on record as “induced hPXR activation to an extent closer to that of RIF”. Moreover, the IC50 on human CAR (hCAR) [1] (setting [3]) is 11 µM; on human CAR (hCAR) [1] (setting [4]), 9.52 µM. For the same compound, the “Follow-up Confirmation Efficacy” value at human CAR (hCAR) [1] (follow-up cherry-pick) is given as -101%. Moreover, the “Primary Screen Efficacy” value on human CAR (hCAR) [1] (primary qHTS) is on record as -88%.
As to `CCC1(c2ccccc2)C(=O)NC(=O)NC1=O` [PB, phenobarbital], the “Nuclear localization of EYFP-hCAR” value at EYFP-hCAR worked out at 99%.
